Several values for one entry are separate records, joined by “and”; a condition that tells them apart may be missing. Equal entries are not always repeated. Where two headings read alike, the source gives them in different places.
Experiments:
[1] = target: T1, BuChE (EC 3.1.1.8, from equin serum) (Equus caballus, UniProt P81908); test: biochemical; format: biochemical; settings: for IC50: means ± SEM of three independent experiments, equine serum BuChE; for BuChE inhibitory activity, fold higher than donepezil: in comparison to donepezil
T1 construct: BuChE (EC 3.1.1.8, from equin serum); purchased Sigma Aldrich (Steinheim, Germany); host or cells: equine serum
Procedure: (§2) The inhibitory activities of the tested compounds towards AChE and BuChE were performed using Ellman’s method[25]. All reagents including AChE (EC 3.1.1.7, from Electrophorus electricus), BuChE (EC 3.1.1.8, from equin serum), DTNB (Ellman’s reagent), and acetylthiocholine iodide (ATC iodide) were purchased from Sigma Aldrich (Steinheim, Germany). Analysis was executed in following procedure: AChE and BuChE solution was made by dissolving enzymes in phosphate buffer (pH 7.4) to obtain 2 and 4 U/ml, respectively. […] The study was performed in triplicate and recorded in 96-well microplates, using multifunctional microplate reader. The assay medium contained DTNB solution 0.4 mg/ml (76 µl), AChE (10 µl), various concentration of the examined compounds (14 µl) and ATC iodine solution (40 µl) at the concentration of 1 mM. For the reference value, 14 µl of the test compound solutions were replaced by phosphate buffer (pH 7.4). […] Inhibition activity was expressed as a percentage of the activity of the tested compound relative to the reference control.

[2] = target: T2, AChE (EC 3.1.1.7, from Electrophorus electricus) (Electrophorus electricus, UniProt O42275); test: biochemical; format: biochemical; settings: for Selectivity for AChE: IC50(BuChE)/IC50(AChE)
T2 construct: purchased Sigma Aldrich (Steinheim, Germany)
Procedure: as §2

Aβ1–42 = target: T3, Aβ1–42 (Homo sapiens, UniProt P05067); test: Aβ1–42 aggregation assay, Thioflavin T fluorescence; format: biochemical; settings: Aβ1–42 12.58 μM, 24 h
T3 construct: final Aβ1–42 concentration – 12.58 μM
Procedure: The Aβ1–42 aggregation assay was established using the Thioflavin T fluorescence method[22] ^, [26] ^, [27]. Experiment was performed by incubating the peptides previously dissolved in DMSO at room temperature for 24 h (final Aβ1–42 concentration – 12.58 μM) with or without the tested compounds at the different concentrations (5, 10, 25, 50, and100 μM). After incubation all samples were diluted in PBS – phosphate buffer (pH 7.4) containing Thioflavin T (5 μM). Subsequently, after 5 min incubation with the dye, fluorescence signal was measured (excitation wavelength 446 nm, emission wavelength 490 nm) on a monochromator based multimode microplate reader (Synergy H1, Bio-Tek, Winooski, VT), adapted for 96-well microtiter plates. Next the percent of inhibition on aggregation was calculated by the following expression: 100 – (IFi/IFo × 100). IFi and IFo were the fluorescence intensities obtained for absorbance in the presence and absence of inhibitors, respectively. The background values were deducted in the calculations.

EeAChE = target: T4, EeAChE (Electrophorus electricus, UniProt O42275); format: biochemical; settings: for Vmax: AChE
T4 construct: purchased Sigma Aldrich (Steinheim, Germany)
Procedure: The kinetic characterisation was evaluated according to the Ellman’s method[4] ^, [25]. […]. The tested medium contained: DTNB solution (0.4 mg/ml), AChE solution (2 U/ml), solution of the examined compound and different concentrations of the substrate ACT iodide in a total volume of […]. Absorbance were detected at 412 nm at room temperature after 6 min. Received date were calculated and presented on the Lineweaver–Burk plot. Determinated the KM and Vmax values were used to define the type of enzyme inhibition.

EqBuChE = target: T5, EqBuChE (Equus caballus, UniProt P81908); test: Kinetic characterisation of BuChE inhibition (Lineweaver–Burk); format: biochemical; settings: for Vmax: BuChE
T5 construct: BuChE (EC 3.1.1.8, from equin serum); purchased Sigma Aldrich (Steinheim, Germany); host or cells: equine serum
Procedure: Kinetic analysis was performed using Ellman’s test[4] ^, [25]. […]. Total volume of tested medium (140 µl) comprised: DTNB solution (0.4 mg/ml), BuChE solution (4 U/ml), solution of the examined compound and different concentrations of the substrate ATC iodide. Absorbance was detected at 412 nm at room temperature after 8 min. Results were calculated and presented on the Lineweaver–Burk plot. Received KM and Vmax values allowed to define the type of enzyme inhibition.

[3] = tested on: ATCC CCL-185 cell line (Epithelial cells from human lungs, carcinoma); test: MTT cytotoxicity assay on ATCC CCL-185 cells; format: cell-based; settings: 22.22 µM; 48 h
Procedure: (§1) In the experiment, ATCC CCL-185 cell line was used (Epithelial cells from human lungs, carcinoma). Cells were seeded on 96-wells plate (F12 Thermo Fisher medium, Waltham MA) and incubated for 24 h. Then the cells were treated with various concentrations (0.22, 1.11, 2.22, 22.22, and 222.20 µM) of the tested compound dissolved in methanol and incubated for 48 h. Final methanol concentration in each well was 1 µl per 100 µl of medium. As a control, the same medium as for cells breeding was used with addition of 1 µl methanol and without studied compound. As a positive control pure methanol was used. After the time of incubation, procedure was carried out according to Vybrant MTT Cell Proliferation Assay Kit: cells were labelled with 10 µl of the 12 mM MTT stock solution, incubated at 37 °C for 4 h, all medium but 25 µl was removed from the wells, 50 µl of DMSO was added, incubated for 10 min at 37 °C and the absorbance at 540 nm was measured.

[4] = MTT cytotoxicity assay on ATCC CCL-185 cells; format: cell-based, human; settings: human, ATCC CCL-185 cells (human lung carcinoma epithelial cells), control as 100%, read-out: cell viability
Procedure: as §1

[5] = target: T6, hyaluronidase from bovine testes Type I-S (Bos taurus, UniProt Q2YDK3); test: Hyaluronidase inhibition test (turbidimetric); format: biochemical; settings: means ± standard deviation; read-out: HYAL IC50 ± SD
T6 sequence (Q2YDK3 36-553): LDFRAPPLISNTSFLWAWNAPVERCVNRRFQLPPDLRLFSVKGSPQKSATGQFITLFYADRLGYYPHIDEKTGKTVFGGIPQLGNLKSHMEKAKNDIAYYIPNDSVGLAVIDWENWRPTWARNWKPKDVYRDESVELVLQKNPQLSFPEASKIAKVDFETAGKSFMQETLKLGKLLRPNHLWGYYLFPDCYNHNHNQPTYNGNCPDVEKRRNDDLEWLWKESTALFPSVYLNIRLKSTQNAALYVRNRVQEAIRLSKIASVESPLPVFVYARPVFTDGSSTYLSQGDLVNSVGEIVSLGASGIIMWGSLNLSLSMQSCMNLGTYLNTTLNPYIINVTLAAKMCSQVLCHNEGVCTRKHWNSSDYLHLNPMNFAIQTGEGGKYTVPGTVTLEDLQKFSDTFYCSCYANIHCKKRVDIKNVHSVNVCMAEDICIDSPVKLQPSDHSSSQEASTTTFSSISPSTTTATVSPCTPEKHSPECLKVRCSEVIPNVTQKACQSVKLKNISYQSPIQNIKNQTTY
Procedure: The inhibition study of hyaluronidase was carried out by turbidimetric method adapted to the 96-well plates and described previously by Michel et al[32] ^, [33]. […] Mixture was incubated in the dark at 37 °C for 10 min. Then, 40 µl of hyaluronic acid solution (0.03%, Sigma Aldrich, Steinheim, Germany) in monosodium phosphate buffer (pH 5.35) was added to the wells and the plate was incubated in the dark at 37 °C for 45 min. At the end, 300 µl of bovine serum albumin solution (0.1%, Serva) in sodium acetate buffer (pH 3.75) was added to the wells and incubated in the room temperature for 10 min. The changes in turbidity were measured at 600 nm by a microplate reader (BioTek, Winooski, VT). The assay was run out in three experiments in triplicate to calculate IC50 values. Heparin (WZF, Polfa) was used as a positive control.
The inhibition of hyaluronidase by the tested compound was calculated following the equation: % inhibition=100x1-AHA-AAN/AHA-AHYAL where AHA − absorbance of solution without the enzyme (positive control),
AHYAL − absorbance of solution without the tested compound (negative control), AAN − absorbance of solution with the tested compound.

[6] = means ± SEM of three independent experiments, electric eel AChE, read-out: AChE IC50 ± SEM

T1 sequence (P81908 whole entry): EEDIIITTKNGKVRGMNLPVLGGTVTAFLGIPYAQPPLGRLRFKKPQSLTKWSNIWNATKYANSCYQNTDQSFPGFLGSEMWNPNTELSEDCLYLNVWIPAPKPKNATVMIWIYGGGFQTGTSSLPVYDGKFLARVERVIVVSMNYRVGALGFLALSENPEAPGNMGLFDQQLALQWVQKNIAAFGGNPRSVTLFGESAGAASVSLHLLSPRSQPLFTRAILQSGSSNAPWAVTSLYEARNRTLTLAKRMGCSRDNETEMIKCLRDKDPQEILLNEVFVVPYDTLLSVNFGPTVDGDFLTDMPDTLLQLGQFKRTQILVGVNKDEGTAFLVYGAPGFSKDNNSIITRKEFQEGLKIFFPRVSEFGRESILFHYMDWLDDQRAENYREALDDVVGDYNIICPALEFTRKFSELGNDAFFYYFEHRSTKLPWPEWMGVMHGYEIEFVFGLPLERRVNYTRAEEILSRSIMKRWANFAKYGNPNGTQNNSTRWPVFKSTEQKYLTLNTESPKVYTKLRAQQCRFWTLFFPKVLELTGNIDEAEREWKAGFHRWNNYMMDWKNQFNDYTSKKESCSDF
T5 sequence (P81908 whole entry): as above
T3 sequence (P05067 672-713 limits assumed): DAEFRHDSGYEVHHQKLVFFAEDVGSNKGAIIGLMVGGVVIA
T2 sequence (O42275 24-633): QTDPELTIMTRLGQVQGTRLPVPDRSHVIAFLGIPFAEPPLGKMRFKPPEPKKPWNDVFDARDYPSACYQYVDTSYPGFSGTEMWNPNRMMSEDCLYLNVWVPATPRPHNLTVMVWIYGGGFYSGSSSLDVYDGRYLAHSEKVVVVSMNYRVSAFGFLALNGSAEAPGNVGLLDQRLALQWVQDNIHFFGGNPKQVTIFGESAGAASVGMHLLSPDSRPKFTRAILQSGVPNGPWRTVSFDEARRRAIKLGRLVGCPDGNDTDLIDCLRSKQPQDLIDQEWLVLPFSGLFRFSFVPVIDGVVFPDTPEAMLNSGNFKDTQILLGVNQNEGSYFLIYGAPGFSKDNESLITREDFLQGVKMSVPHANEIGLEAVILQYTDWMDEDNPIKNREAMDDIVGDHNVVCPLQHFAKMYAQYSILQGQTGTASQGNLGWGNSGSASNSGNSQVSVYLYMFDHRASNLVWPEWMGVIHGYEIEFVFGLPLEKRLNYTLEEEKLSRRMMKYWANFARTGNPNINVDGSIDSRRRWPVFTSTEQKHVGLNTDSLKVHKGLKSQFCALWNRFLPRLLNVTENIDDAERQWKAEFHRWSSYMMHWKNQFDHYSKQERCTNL
T4 sequence (O42275 24-633): as above

Compound: Cl.O=C(NCCNc1c2c(nc3ccccc13)CCC2)c1cnc(Cl)c(Cl)c1 [3a, 5,6-Dichloro-N-[2-(2,3-dihydro-1H-cyclopenta[b]quinolin-9-ylamino)-ethyl]-nicotinamide hydrochloride]
- Selectivity for BuChE ([1]; IC50(AChE)/IC50(BuChE)): 0.035
- IC50 [1]: 1860 ± 83 nM
- Selectivity for AChE [2]: 28.593
- IC50 [2, 6]: 65 ± 7 nM

Compound: Cl.O=C(NCCCNc1c2c(nc3ccccc13)CCC2)c1cnc(Cl)c(Cl)c1 [3b, 5,6-Dichloro-N-[3-(2,3-dihydro-1H-cyclopenta[b]quinolin-9-ylamino)-propyl]-nicotinamide hydrochloride]
- Aβ aggregation (%) (Aβ1–42; 3b 5 µM): 74.31%
- Inhibition of Aβ aggregation (%) (Aβ1–42; 3b 5 µM): 25.7% and 25.69%
- Aβ aggregation (%) (Aβ1–42; 3b 10 µM): 74.23%
- Inhibition of Aβ aggregation (%) (Aβ1–42; 3b 10 µM): 25.77%
- Aβ aggregation (%) (Aβ1–42; 3b 25 µM): 51.82%
- Inhibition of Aβ aggregation (%) (Aβ1–42; 3b 25 µM): 48.18%
- Aβ aggregation (%) (Aβ1–42; 3b 50 µM): 45.70%
- Inhibition of Aβ aggregation (%) (Aβ1–42; 3b 50 µM): 54.30%
- Aβ aggregation (%) (Aβ1–42; 3b 100 µM): 7.22%
- Inhibition of Aβ aggregation (%) (Aβ1–42; 3b 100 µM): 92.8% and 92.78%
- Selectivity for BuChE [1]: 0.330
- BuChE inhibitory activity, fold higher than donepezil [1]: 75 fold
- IC50 [1]: 158 ± 29 nM
- Vmax (EeAChE; inhibitor 3b 0.11 µM): 312.50 A/min
- Vmax (EeAChE; inhibitor 3b 1.11 µM): 1666.67 A/min
- type of EeAChE inhibition (EeAChE; Lineweaver–Burk plot): mixed type of inhibition
- Vmax (EqBuChE; inhibitor 3b 0.22 µM): 3333.3 A/min
- Vmax (EqBuChE; inhibitor 3b 0.56 µM): 1666.7 A/min
- type of EqBuChE inhibition (EqBuChE; Lineweaver–Burk plot): mixed type of inhibition
- IC50 [2]: 52 ± 2 nM
- Selectivity for AChE [2]: 3.030
- AChE inhibitory potency, times higher than donepezil ([2]; in comparison to donepezil): ~2 times
- cell viability [3]: suddenly decreased
- viability at 48 h, 222.2 µM ([4]; 222.20 µM): ~7%
- viability at 48 h ([4]; concentrations from 0.22 to 2.22 µM): ~70%

Compound: Cl.O=C(NCCCCNc1c2c(nc3ccccc13)CCC2)c1cnc(Cl)c(Cl)c1 [3c, 5,6-Dichloro-N-[4-(2,3-dihydro-1H-cyclopenta[b]quinolin-9-ylamino)-butyl]-nicotinamide hydrochloride]
- Selectivity for BuChE ([1]; IC50(AChE)/IC50(BuChE)): 0.934
- IC50 [1]: 797 ± 86 nM
- Selectivity for AChE [2]: 1.071
- IC50 [2, 6]: 744 ± 46 nM

Compound: Cl.O=C(NCCCCCNc1c2c(nc3ccccc13)CCC2)c1cnc(Cl)c(Cl)c1 [3d, 5,6-Dichloro-N-[5-(2,3-dihydro-1H-cyclopenta[b]quinolin-9-ylamino)-pentyl]-nicotinamide hydrochloride]
- Selectivity for BuChE ([1]; IC50(AChE)/IC50(BuChE)): 0.619
- IC50 [1]: 460 ± 38 nM
- Selectivity for AChE [2]: 1.615
- IC50 [2, 6]: 285 ± 38 nM

Compound: Cl.O=C(NCCCCCCNc1c2c(nc3ccccc13)CCC2)c1cnc(Cl)c(Cl)c1 [3e, 5,6-Dichloro-N-[6-(2,3-dihydro-1H-cyclopenta[b]quinolin-9-ylamino)-hexyl]-nicotinamide hydrochloride]
- Selectivity for BuChE ([1]; IC50(AChE)/IC50(BuChE)): 0.420
- IC50 [1]: 127 ± 14 nM
- Selectivity for AChE [2]: 2.380
- IC50 [2, 6]: 53 ± 5 nM

Compound: Cl.O=C(NCCCCCCCNc1c2c(nc3ccccc13)CCC2)c1cnc(Cl)c(Cl)c1 [3f, 5,6-Dichloro-N-[7-(2,3-dihydro-1H-cyclopenta[b]quinolin-9-ylamino)-heptyl]-nicotinamide hydrochloride]
- Selectivity for BuChE ([1]; IC50(AChE)/IC50(BuChE)): 1.756
- BuChE inhibitory activity, fold higher than donepezil [1]: 167 fold
- IC50 [1]: 71 ± 12 nM
- Selectivity for AChE [2]: 0.569
- IC50 [2, 6]: 125 ± 21 nM

Compound: Cl.O=C(NCCCCCCCCNc1c2c(nc3ccccc13)CCC2)c1cnc(Cl)c(Cl)c1 [3g, 5,6-Dichloro-N-[8-(2,3-dihydro-1H-cyclopenta[b]quinolin-9-ylamino)-octyl]-nicotinamide hydrochloride]
- Selectivity for BuChE ([1]; IC50(AChE)/IC50(BuChE)): 1.407
- IC50 [1]: 108 ± 6 nM
- Selectivity for AChE [2]: 0.711
- IC50 [2, 6]: 152 ± 45 nM

Compound: Cl.O=C(NCCCCCCCCCNc1c2c(nc3ccccc13)CCC2)c1cnc(Cl)c(Cl)c1 [3h, 5,6-Dichloro-N-[9-(2,3-dihydro-1H-cyclopenta[b]quinolin-9-ylamino)-nonyl]-nicotinamide hydrochloride]
- Selectivity for BuChE ([1]; IC50(AChE)/IC50(BuChE)): 1.889
- IC50 [1]: 82 ± 30 nM
- Selectivity for AChE [2]: 0.529
- IC50 [2, 6]: 155 ± 45 nM

Compound: Heparin
- IC50 [5]: 56400 ± 780 nM

— publication PMC6080388 (Journal of Enzyme Inhibition and Medicinal Chemistry, 2017)
